Assay [1] deals with α-syn monomer. Nature of the assay: De novo ThT aggregation assay (10 µM α-syn). The conditions noted are these: 37 °C, n = 5. It counts as biochemical. Here is the method:
The Thioflavin T (ThT) assay is commonly used for the visualization of α-syn fibrilization, since the dye ThT is able to bind to the amyloidogenic cross-β-sheet proportions of fibril structures. Recombinant α-syn was thawed on ice and centrifuged for 30 min at 21,000 × g and 4 °C. The concentration of the supernatant was determined as described previously. Lyophilized D-peptides were thawed at RT for 1 h and dissolved in 500 µl PBS pH 7.4. After centrifugation for 30 min at 21,000 × g the supernatant concentration was determined by UV–vis using the corresponding extinction coefficient at A280. […] ThT fluorescence was monitored with bottom optics at λex = 448 nm and λem = 482 nm in a fluorescence plate reader with orbital averaging on 3 mm (Clariostar or Polarstar Optima, BMG labtech, GE). […]
ThT assay was used for different purposes. […] Lag-time and t½ were calculated as described previously. […]
ThT fluorescence progression was measured in a 96-well non-binding half-area plate (Corning, USA) with a FLUOStar platereader (BMG labtech, GE) at λex = 448 nm and λem = 482 nm. […] 10 µM α-syn monomer was incubated with 5, 10 and 20 µM peptide at 37 °C, adding one borosilicate glass bead per well (d = 3.0 mm, Hilgenberg, GE) with continuous orbital shaking at 300 rpm in between reads. […]
For each fit, x ½, lag-time and steady state response was determined in order to calculate their mean value for each condition. […]

Assay [2] deals with PC12 cells. In kind it is cell-based. The conditions noted are these: for PC12 cell viability with PFF: 24 h. On the procedure: PC12 cells (Leibniz Institute DSMZ, GE) were cultivated on collagen A-coated (Biochrom GmbH, GE) tissue culture flasks in RPMI 1640 medium supplemented with 5% fetal calf serum and 10% horse serum in a 95% humidified atmosphere with 5% CO2 at 37 °C. 10,000 cells per well in a volume of 100 µl were seeded on collagen A-coated 96-well plates (Thermo Fisher Scientific, USA) and were incubated for 24 h at 37 °C and 300 rpm in a thermo cycler. […] In addition, 15 µM of the peptides alone, cell media, buffer without peptides and 0.1% Triton X-100 (cytotoxic compound) served as controls. After further incubation in a 95% humidified atmosphere with 5% CO2 at 37 °C for 24 h, cell viability was measured using the Cell Proliferation Kit I (MTT) (Roche Applied Science, CH) according to the manufacturer’s protocol. The MTT formazan product was quantified by measuring the absorbance at 570 nm corrected by subtraction of the absorbance at 660 nm in a FLUOStar Optima plate reader (BMG Labtech, GE). All results were normalized to untreated cells grown in medium only. Test on significance was performed using one-way ANOVA with Bonferroni post hoc analysis (OriginPro 2020, OriginLab, USA; n = 4).
Test on significance was performed using one-way ANOVA with Bonferroni post hoc analysis: * […], *** p ≤ 0.01. Mean data are shown with ±SD (n = 4). While the cell viability was reduced by 50 % in the presence of 30 nM soluble small α-syn PFF alone, no toxic effect of the compounds on PC12 was observed. […] Thus, similar cell viability saving effects were found for SVD-1a using a 30-fold lower concentration.

Assay [3] concerns α-syn (1–108). Nature of the assay: De novo ThT aggregation of 1-108 truncated α-syn. It counts as biochemical. Conditions: 25 µM 1-108 α-syn, equimolar peptide. On the procedure: ThT assay was used for different purposes. […] Lag-time and t½ were calculated as described previously. […] Measurements were taken every 5 min (n = 3).
Aggregation curves were fitted with a symmetric Boltzmann fit and the steady state signal was normalized to 1.

Assay [4] has as its target T1, α-syn monomer (full-length) (Homo sapiens, UniProt P37840).
T1 construct: made in house; host or cells: E. coli BL21(DE3), co-expressed with pNatB (N-terminal acetylation enzyme from Schizosaccharomyces pombe)
Nature of the assay: SPR single-cycle kinetics, peptide immobilized, α-syn as analyte. Conditions: for deviation from 1:1 model (additional binding mode): suggested from deviation of fits for later injections. In kind it is binding. Here is the method: The experiment was performed as an individual measurement. […] The non-referenced signal of the active and referenced surface is shown in Supplementary Fig. 7. […] Full-length α-syn was injected for 100 s at 30 µl/min in PBS 7.4 in a serial dilution ranging from 15 to 250 nM, followed by a dissociation time of 60 min. Y-axis scaling was adjusted to (A).
Measurements were performed using an 8K Biacore device (Cytiva, USA). Interactions were measured using single-cycle kinetics experiments. For all assays, the peptide compounds were immobilized as ligand on the sensor surface and recombinant α-syn was injected as analyte in the flow. […] Surface quenching was performed using 1 M ethanolamine, pH 8.3. The kinetic experiments were performed using a flow rate of 30 µl/min in PBS pH 7.4 if not otherwise stated. The surface was regenerated in between cycles using 30 s injections of 2 M Gua-HCl at 30 µl/min. Data evaluation was performed using Biacore Insight Evaluation Software v3.0 (Cytiva, USA).

“Also recorded” adds a separate entry of the source. Like-named read-outs stand apart in the source and are kept apart here. Square brackets hold non-standard residues; d marks the D form. Peptide text beside a SMILES is read from it.

With `CC[C@@H](C)[C@@H](NC(=O)[C@@H](Cc1c[nH]cn1)NC(=O)[C@@H](CCC(=O)O)NC(=O)[C@@H](CCC(N)=O)NC(=O)[C@@H](Cc1c[nH]c2ccccc12)NC(=O)[C@@H](Cc1ccc(O)cc1)NC(=O)[C@H](NC(=O)[C@@H](CCC(=O)O)NC(=O)[C@@H](Cc1c[nH]cn1)NC(=O)[C@H](NC(=O)[C@H]1CCCN1C(=O)[C@@H](CCSC)NC(=O)[C@H](N)CCCCN)[C@H](C)O)[C@H](C)O)C(=O)N[C@H](Cc1c[nH]c2ccccc12)C(=O)N[C@H](Cc1c[nH]cn1)C(=O)N[C@H](C)C(N)=O` [SVD-1] (H-[dK][dM][dP][dT][dH][dE][dT][dY][dW][dQ][dE][dH][dI][dW][dH][dA]-NH2), in assay [1] (10 µM α-syn, 5, 10 and 20 µM peptide, glass bead, continuous shaking 300 rpm), the “inhibition of de novo aggregation” value is “concentration-dependent delay of aggregation onset as well as by a reduction of steady state levels; also recorded: inhibits primary nucleation of α-syn”. In addition, the “PC12 cell viability with PFF” value in assay [2] (15 µM) is listed as 89%. Further, the “inhibition of α-syn (1–108) aggregation” value in assay [3] was “delay of 1- 108 truncated α-syn aggregation”. In assay [4], the “deviation from 1:1 model (additional binding mode)” value was “additional low-affinity binding mode in the higher nM range”.

What is called Kd is the constant that tells how readily two partners part at equilibrium. Read a low Kd as a tighter complex. For orientation: koff means the rate constant with which the complex falls apart. Broadly, the kon is the rate constant with which the complex forms. For the compound `CC[C@@H](C)[C@@H](NC(=O)[C@@H](Cc1c[nH]cn1)NC(=O)[C@@H](CCC(=O)O)NC(=O)[C@@H](CCC(N)=O)NC(=O)[C@@H](Cc1c[nH]c2ccccc12)NC(=O)[C@@H](Cc1ccc(O)cc1)NC(=O)[C@H](NC(=O)[C@@H](CCC(=O)O)NC(=O)[C@@H](Cc1c[nH]cn1)NC(=O)[C@H](NC(=O)[C@H]1CCCN1C(=O)[C@@H](CC(C)C)NC(=O)[C@H](N)CCCNC(=N)N)[C@H](C)O)[C@H](C)O)C(=O)N[C@H](Cc1c[nH]c2ccccc12)C(=O)N[C@H](Cc1c[nH]cn1)C(=O)N[C@H](C)C(=O)N[C@H](CCCNC(=N)N)C(=O)N[C@H](CCCNC(=N)N)C(=O)N[C@H](CCCNC(=N)N)C(=O)N[C@H](CCCNC(=N)N)C(=O)N[C@H](CCCNC(=N)N)C(N)=O` [SVD-1a] (H-[dR][dL][dP][dT][dH][dE][dT][dY][dW][dQ][dE][dH][dI][dW][dH][dA][dR][dR][dR][dR][dR]-NH2), the “inhibition of de novo aggregation at twofold molar excess” value in assay [1] (10 µM α-syn, 20 µM peptide) is “completely inhibited”. Further, the “fold lower concentration for similar cell viability saving effect vs SVD-1” value in assay [2] (0.5 µM SVD-1a vs 15 µM SVD-1) is recorded as 30 -fold. Moreover, the “PC12 cell viability with PFF” value in assay [2] (0.5 µM) is 82%. For the same compound, in assay [3], the “inhibition of α-syn (1–108) aggregation” value is “delay of 1- 108 truncated α-syn aggregation”. In addition, in assay [4], the Kd was found to be 100 pM and the “deviation from 1:1 model (additional binding mode)” value is “additional low-affinity binding mode in the higher nM range”. The compound also yielded a koff in assay [4] (1:1 Langmuir-based model, immobilized peptide, α-syn analyte, PBS pH 7.4, dissociation 60 or 30 min, individual measurement) of 3.13e-05 s⁻¹. In assay [4] (1:1 Langmuir-based model, immobilized peptide, α-syn analyte, PBS pH 7.4, individual measurement), this compound gave a kon of 313000 M⁻¹ s⁻¹. In addition, in assay [4] (comparison of SVD-1a and SVD-1a_scr.+5r), the “sequence specificity of binding” value is “sequence-specific”.

The values are drawn from publication PMC12454639, “Direct disassembly of α-syn preformed fibrils into α-syn monomers by an all-D-peptide” (NPJ Parkinson's Disease, 2025).
